For one series, the system named is salt depleted dogs. The series can be described thus: Blood pressure in salt depleted dogs after oral or intravenous administration. The format is in vivo.
The conditions of series [1]: dog, in vivo, po.
Protocol: The following compositions comprising compound I were prepared and the bioavailability of each composition was determined in fasted dogs.
Dogs (beagle dogs, mixed sexes, weighing about 10 kg) were fasted for at least 12 hours before dosing. Food was returned after the last blood sample was collected (24 hours). Water was available at all times.
A dose equivalent to 50 or 100 milligrams of compound I was administered by mouth to each dog, followed with either 20 or 50 ml of water through a feeding tube.
Blood samples were collected at the following times: 0, 0.5, 1, 2, 3, 4, 6, 8, 12 and 24 hours. Blood samples of 3 ml volume were anti-coagulated with EDTA. The plasma was separated by centrifugation and frozen until analyzed. Blood plasma concentrations of compound I were determined by HPLC.
Bioavailability was calculated as follows: % Bioavailability=[(AUC)oral×D/(AUC) intravenous]×100. (AUC)oral and (AUC) intravenous are the areas under the curve for the plasma concentration-time profiles following oral and intravenous administration, respectively. D is defined as the intravenous vs. oral DOSE ratio. In particular, D=(DOSE)iv/DOSE)oral. The intravenous dose was 3.0 mg/kg and oral dose was about 5.0 mg/kg or about 10.0 mg/kg. The (AUC) intravenous value used corresponds to the mean value from a separate group of 6 dogs.

This is an account of results in US5523289A, “Pharmaceutical composition” (Abbott Laboratories, priority 1993, dated 1996).

The structures appear in SMILES notation.

For `CC(C)C[C@H](O)[C@H](O)[C@H](CC1CCCCC1)NC(=O)[C@H](Cc1cscn1)NC(=O)[C@H](Cc1ccccc1)CS(=O)(=O)N1CCN(C)CC1` [compound I, (2S)-2-Benzyl-3-(1-methyl-piperazin-4-ylsulfonyl)propionyl-(L)-(4-Thiazolyl)Ala Amide of (2S, 3R, 4S)-2-Amino-1-cyclohexyl-3,4-dihydroxy-6-methylheptane], the “effect on blood pressure” value with salt depleted dogs is “reduces blood pressure”. In addition, the “times more bioavailable orally as a tablet with organic polycarboxylic acid compared to tablet or powder filled capsule without the acid” value in series [1] is on record as not above 7.8 times.
